Results published in paper PMC3138873 (Biochemical pharmacology, 2011).
Read-outs that look alike come from different tables or passages of the source. Values belong to the compound of their own block, whether it stands above or below them.

Key:
AC5 [1] = target: T1, AC5 (Canis lupus familiaris, UniProt P30803); settings: read-out: AC5 Ki; Sf9 membranes, 5 mM MnCl2, 100 μM FS; mean ± SD; cited from earlier work
VC1:IIC2 [2] = target: T2, VC1:IIC2 (UniProt P26769+P30803); assay: Inhibition of the catalytic activity of purified VC1:IIC2; assay type: biochemical, mammalian
AC2 [3] = target: T3, AC2 (Rattus norvegicus, UniProt P26769); settings: read-out: AC2 Ki; Sf9 membranes, 5 mM MnCl2, 100 μM FS; mean ± SD; cited from earlier work
AC1 [4] = target: T4, AC1 (Bos taurus, UniProt P19754); settings: read-out: AC1 Ki; Sf9 membranes, 5 mM MnCl2, 100 μM FS; mean ± SD; cited from earlier work
ACs 1, 2 and 5 = settings: read-out: Ki for ACs 1, 2 and 5; TNP-nucleotides; cited from earlier work
VC1:IIC2 [5] = target: T2, VC1:IIC2; settings: cited from earlier work
AC2 [6] = target: T3, AC2; assay: AC activity assay in Sf9 membranes expressing recombinant AC2; assay type: biochemical, mammalian
AC1 [7] = target: T4, AC1; assay: AC activity assay in Sf9 membranes expressing recombinant AC1; assay type: biochemical, mammalian
AC5 [8] = target: T1, AC5; assay: AC activity assay in Sf9 membranes expressing recombinant AC5; assay type: biochemical, mammalian; settings: for Potency difference AC5 versus AC2: comparison of Ki at AC5 versus AC2
[9] = read-out: VC1:IIC2 Mn2+ + FS + Gsα-GTPγS Ki, maximally stimulated: 10 mM MnCl2, 100 μM FS, 100 μM ATP, mean ± SD
[10] = read-out: Ki for VC1:IIC2, TNP-nucleotides
[11] = read-out: AC2 Ki, Sf9 membranes, 5 mM MnCl2, 100 μM FS, mean ± SD
[12] = read-out: AC1 Ki, Sf9 membranes, 5 mM MnCl2, 100 μM FS, mean ± SD
[13] = read-out: AC5 Ki, Sf9 membranes, 5 mM MnCl2, 100 μM FS, mean ± SD
[14] = read-out: VC1:IIC2 Mn2+ + FS + Gsα-GTPγS Ki, maximally stimulated: 10 mM MnCl2, 100 μM FS, Gsα-GTPγS, mean ± SD
[15] = VC1:IIC2 Mn2+ + FS + Gsα-GTPγS Ki, maximally stimulated: 10 mM MnCl2, 100 μM FS, 100 μM ATP, mean ± SD

T3 sequence (P26769 whole entry): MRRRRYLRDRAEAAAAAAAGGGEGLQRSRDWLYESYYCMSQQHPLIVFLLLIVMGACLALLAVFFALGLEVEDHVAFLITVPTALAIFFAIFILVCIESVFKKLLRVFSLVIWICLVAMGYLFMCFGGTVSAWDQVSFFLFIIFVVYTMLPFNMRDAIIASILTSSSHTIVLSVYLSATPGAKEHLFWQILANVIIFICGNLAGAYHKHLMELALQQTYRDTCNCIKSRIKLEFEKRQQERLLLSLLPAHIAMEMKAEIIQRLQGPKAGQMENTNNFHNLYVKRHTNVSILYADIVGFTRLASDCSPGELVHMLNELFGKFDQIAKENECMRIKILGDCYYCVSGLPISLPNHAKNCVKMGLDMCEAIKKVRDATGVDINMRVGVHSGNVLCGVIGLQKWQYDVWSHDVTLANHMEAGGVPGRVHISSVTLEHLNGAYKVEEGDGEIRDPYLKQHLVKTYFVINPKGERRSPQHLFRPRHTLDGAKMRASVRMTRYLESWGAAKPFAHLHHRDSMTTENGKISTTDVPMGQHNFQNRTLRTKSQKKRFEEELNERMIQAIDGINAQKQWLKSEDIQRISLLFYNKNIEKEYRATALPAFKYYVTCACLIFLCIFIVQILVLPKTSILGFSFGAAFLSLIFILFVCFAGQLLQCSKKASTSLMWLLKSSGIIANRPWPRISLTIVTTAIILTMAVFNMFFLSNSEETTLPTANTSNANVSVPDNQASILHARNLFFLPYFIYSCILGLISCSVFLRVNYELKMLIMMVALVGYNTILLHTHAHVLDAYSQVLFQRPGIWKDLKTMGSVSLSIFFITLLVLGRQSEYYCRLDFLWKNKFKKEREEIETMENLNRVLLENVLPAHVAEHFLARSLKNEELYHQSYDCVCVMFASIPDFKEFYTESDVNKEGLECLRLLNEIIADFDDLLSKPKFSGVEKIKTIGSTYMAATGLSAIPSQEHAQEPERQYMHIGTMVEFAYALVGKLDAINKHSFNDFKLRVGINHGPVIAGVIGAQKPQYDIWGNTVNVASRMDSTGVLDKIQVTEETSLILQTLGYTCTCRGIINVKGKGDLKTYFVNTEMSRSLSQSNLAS
T4 sequence (P19754 whole entry): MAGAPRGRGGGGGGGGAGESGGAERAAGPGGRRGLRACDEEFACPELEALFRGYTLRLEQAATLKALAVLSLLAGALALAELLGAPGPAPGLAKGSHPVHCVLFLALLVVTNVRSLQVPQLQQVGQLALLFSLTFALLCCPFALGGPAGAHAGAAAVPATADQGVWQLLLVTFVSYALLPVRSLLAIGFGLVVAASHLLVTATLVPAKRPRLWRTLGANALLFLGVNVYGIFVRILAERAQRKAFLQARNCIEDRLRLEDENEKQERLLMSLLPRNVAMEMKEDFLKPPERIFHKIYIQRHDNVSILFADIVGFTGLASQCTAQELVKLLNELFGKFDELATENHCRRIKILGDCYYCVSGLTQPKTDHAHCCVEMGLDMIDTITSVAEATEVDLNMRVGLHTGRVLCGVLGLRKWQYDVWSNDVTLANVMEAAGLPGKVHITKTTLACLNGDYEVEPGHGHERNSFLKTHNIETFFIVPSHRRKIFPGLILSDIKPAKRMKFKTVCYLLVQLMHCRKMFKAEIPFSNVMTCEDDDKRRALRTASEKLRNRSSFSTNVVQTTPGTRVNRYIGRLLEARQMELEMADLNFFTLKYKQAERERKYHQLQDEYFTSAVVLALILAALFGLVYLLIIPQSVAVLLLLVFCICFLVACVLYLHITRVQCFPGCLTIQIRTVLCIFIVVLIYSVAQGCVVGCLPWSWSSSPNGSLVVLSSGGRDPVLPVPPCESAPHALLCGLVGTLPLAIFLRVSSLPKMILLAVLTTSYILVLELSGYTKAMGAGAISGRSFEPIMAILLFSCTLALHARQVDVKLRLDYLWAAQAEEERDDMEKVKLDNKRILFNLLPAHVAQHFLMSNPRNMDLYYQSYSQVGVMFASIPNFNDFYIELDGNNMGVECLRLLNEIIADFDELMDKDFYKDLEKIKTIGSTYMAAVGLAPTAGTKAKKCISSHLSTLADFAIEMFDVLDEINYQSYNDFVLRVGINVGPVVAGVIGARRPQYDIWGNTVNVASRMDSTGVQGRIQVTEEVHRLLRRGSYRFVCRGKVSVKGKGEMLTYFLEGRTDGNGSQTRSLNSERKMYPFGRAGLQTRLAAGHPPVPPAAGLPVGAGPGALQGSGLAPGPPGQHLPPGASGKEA
T1 sequence (P30803 whole entry): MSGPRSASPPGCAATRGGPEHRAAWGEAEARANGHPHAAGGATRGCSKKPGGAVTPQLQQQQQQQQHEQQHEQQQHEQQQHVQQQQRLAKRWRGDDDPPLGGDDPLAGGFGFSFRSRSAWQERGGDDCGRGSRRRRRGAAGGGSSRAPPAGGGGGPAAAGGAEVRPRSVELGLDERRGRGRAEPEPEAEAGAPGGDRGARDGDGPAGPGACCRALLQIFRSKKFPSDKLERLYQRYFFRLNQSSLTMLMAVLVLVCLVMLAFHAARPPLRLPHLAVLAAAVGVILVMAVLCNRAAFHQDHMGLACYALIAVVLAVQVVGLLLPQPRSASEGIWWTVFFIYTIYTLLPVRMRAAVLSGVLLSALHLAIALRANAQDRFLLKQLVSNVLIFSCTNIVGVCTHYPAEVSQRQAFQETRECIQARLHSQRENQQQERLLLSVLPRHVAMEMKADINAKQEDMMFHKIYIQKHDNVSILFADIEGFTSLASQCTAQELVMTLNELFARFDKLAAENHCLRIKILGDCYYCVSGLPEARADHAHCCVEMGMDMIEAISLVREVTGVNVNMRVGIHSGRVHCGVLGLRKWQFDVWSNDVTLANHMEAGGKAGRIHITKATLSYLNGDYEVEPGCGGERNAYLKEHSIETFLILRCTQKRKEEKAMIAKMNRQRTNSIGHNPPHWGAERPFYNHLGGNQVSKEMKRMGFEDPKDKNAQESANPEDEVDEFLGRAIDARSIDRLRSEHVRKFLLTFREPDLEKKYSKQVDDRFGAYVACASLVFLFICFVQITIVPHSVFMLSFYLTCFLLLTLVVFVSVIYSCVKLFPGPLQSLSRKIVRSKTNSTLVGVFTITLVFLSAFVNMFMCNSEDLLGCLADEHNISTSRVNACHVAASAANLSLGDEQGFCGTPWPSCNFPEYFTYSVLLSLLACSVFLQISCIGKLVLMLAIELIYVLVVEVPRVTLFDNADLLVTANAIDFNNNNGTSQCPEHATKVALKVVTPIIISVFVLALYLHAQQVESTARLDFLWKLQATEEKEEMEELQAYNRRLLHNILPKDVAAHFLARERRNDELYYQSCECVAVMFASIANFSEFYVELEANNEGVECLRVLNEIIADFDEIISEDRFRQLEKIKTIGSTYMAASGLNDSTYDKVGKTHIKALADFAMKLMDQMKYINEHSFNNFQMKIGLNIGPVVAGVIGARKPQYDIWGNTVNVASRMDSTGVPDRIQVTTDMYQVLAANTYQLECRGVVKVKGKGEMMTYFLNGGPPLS
T2 sequence (P30803 398-765 limits assumed): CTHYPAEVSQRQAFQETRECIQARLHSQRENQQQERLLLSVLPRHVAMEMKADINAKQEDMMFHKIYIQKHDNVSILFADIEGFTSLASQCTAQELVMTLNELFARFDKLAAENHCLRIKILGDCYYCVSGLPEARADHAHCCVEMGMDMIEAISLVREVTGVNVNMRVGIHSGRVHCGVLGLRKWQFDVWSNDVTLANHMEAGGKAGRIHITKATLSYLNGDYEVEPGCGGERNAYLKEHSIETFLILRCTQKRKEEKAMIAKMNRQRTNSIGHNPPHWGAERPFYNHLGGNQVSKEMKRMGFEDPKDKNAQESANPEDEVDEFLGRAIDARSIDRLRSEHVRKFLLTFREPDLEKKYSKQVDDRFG
T2 sequence (P26769 821-1090 limits assumed): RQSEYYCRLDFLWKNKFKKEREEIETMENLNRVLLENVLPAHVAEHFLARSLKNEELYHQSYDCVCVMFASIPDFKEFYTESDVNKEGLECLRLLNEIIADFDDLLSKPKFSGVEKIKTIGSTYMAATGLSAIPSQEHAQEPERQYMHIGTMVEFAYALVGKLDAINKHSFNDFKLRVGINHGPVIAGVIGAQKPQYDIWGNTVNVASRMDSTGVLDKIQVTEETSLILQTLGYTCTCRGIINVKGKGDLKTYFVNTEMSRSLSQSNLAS
T2 sequence (P04896 whole entry partner): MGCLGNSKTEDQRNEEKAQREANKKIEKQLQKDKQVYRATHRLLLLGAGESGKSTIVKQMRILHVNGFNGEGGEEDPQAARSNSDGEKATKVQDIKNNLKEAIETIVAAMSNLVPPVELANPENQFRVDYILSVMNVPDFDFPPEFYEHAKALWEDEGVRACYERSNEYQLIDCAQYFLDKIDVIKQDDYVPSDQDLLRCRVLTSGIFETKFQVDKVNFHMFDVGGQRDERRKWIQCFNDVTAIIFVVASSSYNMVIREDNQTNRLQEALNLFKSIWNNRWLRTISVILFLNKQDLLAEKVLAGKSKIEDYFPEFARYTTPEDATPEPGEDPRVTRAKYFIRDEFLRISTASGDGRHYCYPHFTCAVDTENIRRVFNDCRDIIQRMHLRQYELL

Ki (VC1:IIC2 [2]; [9]): 9.2 ± 1.5 nM
Compound: 2’(3’)-O-(N-methylanthraniloyl)-cytidine 5’-triphosphate [compound 12]
Ki (AC5 [1]): 150 ± 30 nM | Ki (AC2 [3]): 690 ± 20 nM | Ki (AC1 [4]): 150 ± 30 nM

Compound: 2’,3’-O-(2,4,6-trinitrophenyl)-CTP [reference compound]
Ki (ACs 1, 2 and 5): 10 to 100 nM | Ki (VC1:IIC2 [5]; [10]): 100 to 300 nM

Compound: 2’,3’-O-(2,4,6-trinitrophenyl)-UTP [reference compound]
Ki (ACs 1, 2 and 5): 10 to 100 nM | Ki (VC1:IIC2 [5]; [10]): 100 to 300 nM

Compound: 2’,3’-O-(N-methylanthraniloyl)-adenosine 5’-triphosphate [compound 5]
Ki (AC1 [4]): 150 ± 40 nM

Ki (AC2 [6]; [11]): 370 ± 81 nM | Ki (AC1 [7]; [12]): 63 ± 17 nM | Ki (VC1:IIC2 [2]; [9]): 24 ± 4.1 nM | Ki (AC5 [8]; [13]): 34 ± 8 nM
Compound: 2’,3’-O-(N-methylanthraniloyl)-guanosine 5’-[γ-thio]triphosphate [compound 4]

Ki (AC2 [6]; [11]): 610 ± 70 nM | Ki (AC1 [7]; [12]): 90 ± 18 nM | Potency difference AC5 versus AC2 (AC5 [8]): > 10 fold | Ki (AC5 [8]; [13]): 53 ± 12 nM
Compound: 2’,3’-O-(N-methylanthraniloyl)-guanosine 5’-triphosphate [compound 1]
Ki (VC1:IIC2 [5]; [14]): 18 ± 6 nM

Ki (AC2 [6]; [11]): 460 ± 60 nM | Ki (AC1 [7]; [12]): 46 ± 4 nM | Ki (VC1:IIC2 [2]; [9]): 6.1 ± 1.3 nM | Potency difference AC5 versus AC2 (AC5 [8]): > 10 fold | Ki (AC5 [8]; [13]): 32 ± 2 nM
Compound: 2’,3’-O-(N-methylanthraniloyl)-uridine 5’-triphosphate [compound 11]

Ki (AC2 [6]; [11]): 3000 nM | Ki (AC1 [7]; [12]): 1100 nM | Ki (AC5 [8]; [13]): 1300 nM
Compound: 2’,3’-O-(N-methylanthraniloyl)-xanthosine 5’-triphosphate [compound 10]
Ki (VC1:IIC2 [5]; [14]): 1200 nM

Ki (AC2 [6]; [11]): 2900 nM | Ki (AC1 [7]; [12]): 860 ± 10 nM
Compound: 2’,3’-O-anthraniloyl-adenosine 5’-diphosphate [compound 15]

Ki (AC2 [6]; [11]): 640 ± 70 nM | Ki (AC1 [7]; [12]): 130 ± 20 nM
Compound: 2’,3’-O-anthraniloyl-adenosine 5’-triphosphate [compound 14]

Ki (VC1:IIC2 [2]; [9]): 10 ± 1.7 nM
Compound: 2’,3’-O-anthraniloyl-guanosine 5’-triphosphate [compound 13]

Ki (AC2 [6]): 1300 ± 210 nM | Ki (AC1 [7]): 270 ± 30 nM | Ki (AC5 [8]): 410 ± 35 nM
Compound: CNc1ccccc1C(=O)O[C@H]1C[C@H](n2cnc3c(=O)[nH]c(N)nc32)O[C@@H]1COP(=O)(O)OP(=O)(O)OP(=O)(O)O [compound 2, 2’-deoxy-3’-O-(N-methylanthraniloyl)-guanosine 5’-triphosphate]

Ki (AC2 [6]): 8700 nM | Ki (AC1 [7]): 1800 nM | Ki (VC1:IIC2 [2]; [15]): 350 ± 43 nM | Ki (AC5 [8]): 1800 nM
Compound: CNc1ccccc1C(=O)O[C@@H]1C[C@@H](COP(=O)(O)OP(=O)(O)OP(=O)(O)O)O[C@H]1n1cnc2c(=O)[nH]c(N)nc21 [compound 3, 3’-deoxy-2’-O-(N-methylanthraniloyl)-guanosine 5’-triphosphate]

Ki (AC2 [6]): 4800 nM | Ki (AC1 [7]): 320 ± 19 nM | Ki (VC1:IIC2 [2]; [15]): 190 ± 3.4 nM | Ki (AC5 [8]): 360 ± 54 nM | Potency difference AC5 versus AC2 (AC5 [8]): > 10 fold
Compound: CNc1ccccc1C(=O)O[C@H]1C[C@H](n2cnc3c(N)ncnc32)O[C@@H]1COP(=O)(O)OP(=O)(O)OP(=O)(O)O [compound 6, 2’-deoxy-3’-O-(N-methylanthraniloyl)-adenosine 5’-triphosphate]

Ki (AC2 [6]): 540 ± 20 nM | Ki (AC1 [7]): 470 ± 20 nM | Ki (VC1:IIC2 [2]; [15]): 90 ± 2.2 nM | Ki (AC5 [8]): 65 ± 5 nM
Compound: CNc1ccccc1C(=O)O[C@@H]1C[C@@H](COP(=O)(O)OP(=O)(O)OP(=O)(O)O)O[C@H]1n1cnc2c(N)ncnc21 [compound 7, 3’-deoxy-2’-O-(N-methylanthraniloyl)-adenosine 5’-triphosphate]
